Article PMC9077236, “Gs protein peptidomimetics as allosteric modulators of the β2-adrenergic receptor” (RSC Advances, 2018)
pIC50: −log10 of the molar value.

What was measured:
[1] = CuAAC (i,i+4) side-chain stapling of azidolysine with propargylglycine or O-propargylserine; CuSO4·5H2O (1 eq), Na ascorbate (5 eq); from purified linear peptides; conditions: the molecule shown is the open-chain precursor, tBuOH/H2O 1:2, 0.5 mM, 25.0 °C
[2] = CuAAC (i,i+4) side-chain stapling of azidolysine with propargylglycine or O-propargylserine; CuSO4·5H2O (1 eq), Na ascorbate (5 eq); from crude linear peptides; conditions: the molecule shown is the open-chain precursor, tBuOH/H2O 1:2, 0.5 mM, 25.0 °C
[3] = test system: β2AR (β2AR-Δ4 construct, C265 bimane-labelled); experiment: Conformational bimane fluorescence shift assay on purified mBBr-labelled β2AR; format: biochemical; conditions: increasing concentrations of ISO, saturating at 250 μM and 500 μM
Method: To further investigate their pharmacological profiles, selected peptidomimetics were tested in a bimane fluorescence shift assay (see ESI ^†). […] Stimulation of purified, C265 fluorophore-labelled β2AR with increasing concentrations of ISO results in a concentration-dependent decrease in the fluorescence intensity (FI) and a red-shift of the maximum emission wavelength (λmax) of the bimane-fluorophore probe (Fig. 5A).
Bimane-fluorescence curves in presence of agonist or peptidomimetic alone or in combination were normalised to that of the receptor alone.
Conformational biman e fluorescence assay
Baculovirus es containing the β2AR-Δ4 construct (full-length β 2AR with four mutated
cystein es (C77V, C327S , C378 A and C406A10,11) were generated as pr eviousl y d escribed b y
Rosenbaum et al.12 The modi fied β 2AR wa s ex pre s sed in S f9 insect cel ls using r ecombi na nt
baculovi rus and pu rified b y M1-anti- FLAG im munoaffinit y chr omatograph y. The F LAG -
purified receptor was l abe lled with monobromobimane (mBBr) and purified b y alprenolol
affinit y chr omato graph y as described b y Yao et al. 13 with one minor change; the modified β2AR
was labelled with an excess of 10 µM mBBr (instead of equivalent amounts of β 2AR and
mBBr). […]
ligands and peptide s were subtracted from the samples. Data was analysed b y use of the […]

[4] = molecular target: T1, β2-adrenergic receptor (β2AR) (Homo sapiens, UniProt P07550); experiment: Membrane-based cAMP accumulation assay (HTRF), ISO-induced cAMP formation; format: biochemical
T1 construct: expressed in transfected cells; host or cells: HEK293 cells stably overexpressing β2AR; membrane fractions used
T1 sequence (P07550 whole entry, species assumed): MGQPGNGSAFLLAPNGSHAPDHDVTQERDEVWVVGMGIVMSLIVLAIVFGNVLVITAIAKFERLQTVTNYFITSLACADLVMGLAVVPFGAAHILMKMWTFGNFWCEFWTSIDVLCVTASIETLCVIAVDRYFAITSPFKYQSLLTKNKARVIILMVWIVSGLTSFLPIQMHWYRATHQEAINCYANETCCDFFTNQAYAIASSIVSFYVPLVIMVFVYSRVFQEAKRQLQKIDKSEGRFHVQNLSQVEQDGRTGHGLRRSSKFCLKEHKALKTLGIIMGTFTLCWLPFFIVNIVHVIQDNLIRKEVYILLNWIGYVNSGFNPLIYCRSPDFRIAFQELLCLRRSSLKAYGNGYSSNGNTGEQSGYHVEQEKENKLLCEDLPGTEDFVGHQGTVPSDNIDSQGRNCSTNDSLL
Method: To allow the peptidomimetics to interact with the intracellular G protein binding pocket they were tested in a membrane-based cAMP accumulation assay (see ESI ^†). […] The cAMP levels in absence of peptidomimetics were normalised to the basal (0%) and maximal efficacy (100%) of ISO in presence of vehicle (DMSO).
overexpressing the β2AR8 were prepared and the peptidomimetics tested as previously
peptidomimetics diluted in HBSS buffer supplemented with 20 mM HEPES pH 7.5, 0.1 %
Elmer) at room temperature (RT) for 15 min. Then isoproterenol solutions for the
prepared in ligand buffer (HBSS buffer supplemented with 20 mM HEPES pH 7.5, 0.1 %
added to the wells and incubated for 30 min at room temperature. To detect cAMP formation
the HTRF cAMP d ynamic 2 assa y kit from CisBio (cat no. 2AM4PEC) was used according
to the manufactures protocol. The absolute cAMP levels were determined using a cAMP
standard curve and norm alised to the maximal cAMP response obtained by full isoproterenol
stimulation alone. Significant differen ces b etween IS O alon e and in presence of the p eptides
were calculat ed statisticall y b y use of on e- wa y ANOVA in the GraphPad Prism software.

Compound: C#CC[C@H](NC(=O)[C@H](CCCNC(=N)N)NC(=O)[C@H](CCC(N)=O)NC(=O)[C@@H](NC(=O)[C@@H](CCCCN=[N+]=[N-])NC(=O)[C@H](CC(=O)O)NC(=O)[C@H](CCCNC(=N)N)NC(C)=O)[C@@H](C)CC)C(=O)N[C@@H](Cc1cnc[nH]1)C(=O)N[C@@H](CC(C)C)C(=O)N[C@@H](CCCNC(=N)N)C(=O)N[C@@H](CCC(N)=O)C(=O)N[C@@H](Cc1ccc(O)cc1)C(=O)N[C@@H](CCC(=O)O)C(=O)N[C@@H](CC(C)C)C(=O)N[C@@H](CC(C)C)C(=O)O [Ac-R-D-(D-K(N3))-I-Q-R-Pra-H-L-R-Q-Y-E-L-L-OH]
- ring closure, isolated yield ([1]; 21-membered ring, 0.25 h): 56%

Compound: C#CCOC[C@H](NC(=O)[C@H](CCCNC(=N)N)NC(=O)[C@H](CCC(N)=O)NC(=O)[C@@H](NC(=O)[C@@H](CCCCN=[N+]=[N-])NC(=O)[C@H](CC(=O)O)NC(=O)[C@H](CCCNC(=N)N)NC(C)=O)[C@@H](C)CC)C(=O)N[C@@H](Cc1cnc[nH]1)C(=O)N[C@@H](CC(C)C)C(=O)N[C@@H](CCCNC(=N)N)C(=O)N[C@@H](CCC(N)=O)C(=O)N[C@@H](Cc1ccc(O)cc1)C(=O)N[C@@H](CCC(=O)O)C(=O)N[C@@H](CC(C)C)C(=O)N[C@@H](CC(C)C)C(=O)O [Ac-R-D-(D-K(N3))-I-Q-R-Ser(O-propargyl)-H-L-R-Q-Y-E-L-L-OH]
- ring closure, isolated yield ([1]; 23-membered ring): 40%

Compound: C#CC[C@H](NC(=O)[C@H](CCCC)NC(=O)[C@H](CCCNC(=N)N)NC(=O)[C@H](CCC(N)=O)NC(=O)[C@@H](CCCCN=[N+]=[N-])NC(=O)[C@@H](NC(=O)[C@H](CC(=O)O)NC(=O)[C@H](CCCNC(=N)N)NC(C)=O)[C@@H](C)CC)C(=O)N[C@@H](CC(C)C)C(=O)N[C@@H](CCCNC(=N)N)C(=O)N[C@@H](CCC(N)=O)C(=O)N[C@@H](Cc1ccc(O)cc1)C(=O)N[C@@H](CCC(=O)O)C(=O)N[C@@H](CC(C)C)C(=O)N[C@@H](CC(C)C)C(=O)O [Ac-R-D-I-(D-K(N3))-Q-R-Nle-Pra-L-R-Q-Y-E-L-L-OH]
- ring closure, overall yield ([2]; 21-membered ring): 11%

Compound: C#CCOC[C@H](NC(=O)[C@H](CCCC)NC(=O)[C@H](CCCNC(=N)N)NC(=O)[C@H](CCC(N)=O)NC(=O)[C@@H](CCCCN=[N+]=[N-])NC(=O)[C@@H](NC(=O)[C@H](CC(=O)O)NC(=O)[C@H](CCCNC(=N)N)NC(C)=O)[C@@H](C)CC)C(=O)N[C@@H](CC(C)C)C(=O)N[C@@H](CCCNC(=N)N)C(=O)N[C@@H](CCC(N)=O)C(=O)N[C@@H](Cc1ccc(O)cc1)C(=O)N[C@@H](CCC(=O)O)C(=O)N[C@@H](CC(C)C)C(=O)N[C@@H](CC(C)C)C(=O)O [Ac-R-D-I-(D-K(N3))-Q-R-Nle-Ser(O-propargyl)-L-R-Q-Y-E-L-L-OH]
- ring closure, overall yield ([2]; 23-membered ring): 13%

Compound: C#CC[C@H](NC(=O)[C@H](CCCNC(=N)N)NC(=O)[C@H](CC(C)C)NC(=O)[C@H](Cc1cnc[nH]1)NC(=O)[C@@H](CCCCN=[N+]=[N-])NC(=O)[C@H](CCCNC(=N)N)NC(=O)[C@H](CCC(N)=O)NC(=O)[C@@H](NC(=O)[C@@H](NC(=O)[C@H](CC(=O)O)NC(=O)[C@H](CCCNC(=N)N)NC(C)=O)[C@@H](C)CC)[C@@H](C)CC)C(=O)N[C@@H](Cc1ccc(O)cc1)C(=O)N[C@@H](CCC(=O)O)C(=O)N[C@@H](CC(C)C)C(=O)N[C@@H](CC(C)C)C(=O)O [Ac-R-D-I-I-Q-R-(D-K(N3))-H-L-R-Pra-Y-E-L-L-OH]
- ring closure, overall yield ([2]; 21-membered ring, 1.0 h): 26%

Compound: C#CCOC[C@H](NC(=O)[C@H](CCCNC(=N)N)NC(=O)[C@H](CC(C)C)NC(=O)[C@H](Cc1cnc[nH]1)NC(=O)[C@@H](CCCCN=[N+]=[N-])NC(=O)[C@H](CCCNC(=N)N)NC(=O)[C@H](CCC(N)=O)NC(=O)[C@@H](NC(=O)[C@@H](NC(=O)[C@H](CC(=O)O)NC(=O)[C@H](CCCNC(=N)N)NC(C)=O)[C@@H](C)CC)[C@@H](C)CC)C(=O)N[C@@H](Cc1ccc(O)cc1)C(=O)N[C@@H](CCC(=O)O)C(=O)N[C@@H](CC(C)C)C(=O)N[C@@H](CC(C)C)C(=O)O [Ac-R-D-I-I-Q-R-(D-K(N3))-H-L-R-Ser(O-propargyl)-Y-E-L-L-OH]
- ring closure, overall yield ([2]; 23-membered ring, 3.0 h): 11%

Compound: C#CC[C@H](NC(=O)[C@H](CCCNC(=N)N)NC(=O)[C@H](CC(C)C)NC(=O)[C@H](Cc1cnc[nH]1)NC(=O)[C@H](CCCCN=[N+]=[N-])NC(=O)[C@H](CCCNC(=N)N)NC(=O)[C@H](CCC(N)=O)NC(=O)[C@@H](NC(=O)[C@@H](NC(=O)[C@H](CC(=O)O)NC(=O)[C@H](CCCNC(=N)N)NC(C)=O)[C@@H](C)CC)[C@@H](C)CC)C(=O)N[C@@H](Cc1ccc(O)cc1)C(=O)N[C@@H](CCC(=O)O)C(=O)N[C@@H](CC(C)C)C(=O)N[C@@H](CC(C)C)C(=O)O [Ac-R-D-I-I-Q-R-K(N3)-H-L-R-Pra-Y-E-L-L-OH]
- ring closure, overall yield ([2]; 21-membered ring, 3.0 h): 10%

Compound: C#CCOC[C@H](NC(=O)[C@H](CCCNC(=N)N)NC(=O)[C@H](CC(C)C)NC(=O)[C@H](Cc1cnc[nH]1)NC(=O)[C@H](CCCCN=[N+]=[N-])NC(=O)[C@H](CCCNC(=N)N)NC(=O)[C@H](CCC(N)=O)NC(=O)[C@@H](NC(=O)[C@@H](NC(=O)[C@H](CC(=O)O)NC(=O)[C@H](CCCNC(=N)N)NC(C)=O)[C@@H](C)CC)[C@@H](C)CC)C(=O)N[C@@H](Cc1ccc(O)cc1)C(=O)N[C@@H](CCC(=O)O)C(=O)N[C@@H](CC(C)C)C(=O)N[C@@H](CC(C)C)C(=O)O [Ac-R-D-I-I-Q-R-K(N3)-H-L-R-Ser(O-propargyl)-Y-E-L-L-OH]
- ring closure, overall yield ([2]; 23-membered ring, 2.0 h): 14%

Compound: C#CC[C@H](NC(=O)[C@H](CCCC)NC(=O)[C@H](CCCNC(=N)N)NC(=O)[C@H](CCC(N)=O)NC(=O)[C@H](CCCCN=[N+]=[N-])NC(=O)[C@@H](NC(=O)[C@H](CC(=O)O)NC(=O)[C@H](CCCNC(=N)N)NC(C)=O)[C@@H](C)CC)C(=O)N[C@@H](CC(C)C)C(=O)N[C@@H](CCCNC(=N)N)C(=O)N[C@@H](CCC(N)=O)C(=O)N[C@@H](Cc1ccc(O)cc1)C(=O)N[C@@H](CCC(=O)O)C(=O)N[C@@H](CC(C)C)C(=O)N[C@@H](CC(C)C)C(=O)O [Ac-R-D-I-K(N3)-Q-R-Nle-Pra-L-R-Q-Y-E-L-L-OH]
- ring closure, overall yield ([2]; 21-membered ring): 10%

Compound: C#CCOC[C@H](NC(=O)[C@H](CCCC)NC(=O)[C@H](CCCNC(=N)N)NC(=O)[C@H](CCC(N)=O)NC(=O)[C@H](CCCCN=[N+]=[N-])NC(=O)[C@@H](NC(=O)[C@H](CC(=O)O)NC(=O)[C@H](CCCNC(=N)N)NC(C)=O)[C@@H](C)CC)C(=O)N[C@@H](CC(C)C)C(=O)N[C@@H](CCCNC(=N)N)C(=O)N[C@@H](CCC(N)=O)C(=O)N[C@@H](Cc1ccc(O)cc1)C(=O)N[C@@H](CCC(=O)O)C(=O)N[C@@H](CC(C)C)C(=O)N[C@@H](CC(C)C)C(=O)O [Ac-R-D-I-K(N3)-Q-R-Nle-Ser(O-propargyl)-L-R-Q-Y-E-L-L-OH]
- ring closure, overall yield ([2]; 23-membered ring, 1.0 h): 15%

Compound: C#CC[C@H](NC(=O)[C@H](CCCNC(=N)N)NC(=O)[C@H](CCC(N)=O)NC(=O)[C@@H](NC(=O)[C@H](CCCCN=[N+]=[N-])NC(=O)[C@H](CC(=O)O)NC(=O)[C@H](CCCNC(=N)N)NC(C)=O)[C@@H](C)CC)C(=O)N[C@@H](Cc1cnc[nH]1)C(=O)N[C@@H](CC(C)C)C(=O)N[C@@H](CCCNC(=N)N)C(=O)N[C@@H](CCC(N)=O)C(=O)N[C@@H](Cc1ccc(O)cc1)C(=O)N[C@@H](CCC(=O)O)C(=O)N[C@@H](CC(C)C)C(=O)N[C@@H](CC(C)C)C(=O)O [Ac-R-D-K(N3)-I-Q-R-Pra-H-L-R-Q-Y-E-L-L-OH]
- ring closure, isolated yield ([1]; 21-membered ring, 0.25 h): 36%

Compound: C#CCOC[C@H](NC(=O)[C@H](CCCNC(=N)N)NC(=O)[C@H](CCC(N)=O)NC(=O)[C@@H](NC(=O)[C@H](CCCCN=[N+]=[N-])NC(=O)[C@H](CC(=O)O)NC(=O)[C@H](CCCNC(=N)N)NC(C)=O)[C@@H](C)CC)C(=O)N[C@@H](Cc1cnc[nH]1)C(=O)N[C@@H](CC(C)C)C(=O)N[C@@H](CCCNC(=N)N)C(=O)N[C@@H](CCC(N)=O)C(=O)N[C@@H](Cc1ccc(O)cc1)C(=O)N[C@@H](CCC(=O)O)C(=O)N[C@@H](CC(C)C)C(=O)N[C@@H](CC(C)C)C(=O)O [Ac-R-D-K(N3)-I-Q-R-Ser(O-propargyl)-H-L-R-Q-Y-E-L-L-OH]
- ring closure, isolated yield ([1]; 23-membered ring, 1.0 h): 69%

Compound: CC(C)NC[C@H](O)c1ccc(O)c(O)c1 [ISO, (−)-isoproterenol]
- Effect on bimane fluorescence (FI and λmax) / receptor conformation [3]: induces an active receptor conformation in a concentration-dependent manner

Compound: CC[C@H](C)[C@H](NC(=O)[C@H](CC(=O)O)NC(=O)[C@H](CCCNC(=N)N)NC(C)=O)C(=O)N[C@H](C(=O)N[C@@H](CCC(N)=O)C(=O)N[C@@H](CCCNC(=N)N)C(=O)N[C@H]1CCCCn2cc(nn2)C[C@@H](C(=O)N[C@@H](Cc2ccc(O)cc2)C(=O)N[C@@H](CCC(=O)O)C(=O)N[C@@H](CC(C)C)C(=O)N[C@@H](CC(C)C)C(=O)O)NC(=O)[C@H](CCCNC(=N)N)NC(=O)[C@H](CC(C)C)NC(=O)[C@H](Cc2c[nH]cn2)NC1=O)[C@@H](C)CC [Peptide 10C]
- Maximum efficacy of ISO ([4]; ISO CRC in presence of 100 μM peptidomimetic, HEK293 membranes overexpressing β2AR, normalised to ISO with vehicle (100%), mean ± SEM, n = 3, * P < 0.05): 61.0 ± 4.1* %
- Basal level (basal cAMP level of the ISO concentration-response curve) ([4]; ISO CRC in presence of 100 μM peptidomimetic, HEK293 membranes overexpressing β2AR, normalised to basal (0%) and maximal efficacy (100%) of ISO with vehicle (DMSO), 15 min preincubation, 30 min RT, mean ± SEM, n = 3): −11.0 ± 4.3%
- Hill slope of the ISO concentration-response curve ([4]; in presence of 100 μM peptidomimetic, mean ± SEM, n = 3): 0.63 ± 0.06
- pIC50 ([4]; in presence of an ISO concentration corresponding to EC75, 10C up to 200 μM, read-out: IC50 for blocking ISO-induced cAMP formation (estimated)): 4.26
